Reference: patent publication US11406694B2, “Vaccine comprising drug and parasite administration” (priority 2016, dated 2022)

Tests used:
[1] = system: P. falciparum 7G8; experiment: Blood stage P. falciparum infection of human volunteers under doxycycline, parasitaemia by qPCR; assay type: in vivo; conditions: two volunteers, 3×10^6 P. falciparum pRBC, 100 mg doxycycline once daily for 21 days
Description: FIG. 13: Persistence of P. falciparum 7G8 in volunteers receiving doxycycline chemoprophylaxis. […] Volunteers received 3×106 pRBCs on D0, followed by doxycycline treatment administered orally (100 mg/day) from D0 to D20.
We have also started human experiments. Initially we have given two volunteers a blood stage infection initiated with 3×10^6 magnet-purified P. falciparum trophozoite-parasitized human red cells (pRBC). At the same time, volunteers were administered 100 mg doxycycline once daily for 21 days, although this could be changed to twice daily. A controlled release form of doxycycline (such as Atridox® comprising doxycycline hyclate) will also be tested.
Parasite concentration is determined whereby the log10 of each known concentration of a standard concentration range is plotted against the quantification cycle of Cq values of the test samples in a linear regression model (y=mx+b) using Biorad CFX manager 2.1 software.

[2] = system: Plasmodium parasite; experiment: Blood-stage infection of mice under daily doxycycline treatment (course of infection during infection/drug cure); assay type: in vivo
Description: The work described herein relates to giving mice and humans a blood stage malaria infection and daily doses of oral (human) or intraperitoneal (mice) doxycycline as a delayed death agent. This cycle can be repeated and we have given mice 1 or 3 cycles of infection/drug cure (IDC) with doxycycline.
Mice (BALB/c or C57/B6) received varying doses of Plasmodium parasite (10^5-10^7 trophozoite parasitised red blood cells; pRBC), administered via intravenous injection (200 μL). Mice were subsequently started on doxycycline treatment (doxycycline hydrate (Sigma) dissolved in 1× phosphate buffered saline, 50 mg/kg administered in ˜100 μL volume via intraperitoneal injection) approximately 1-2 hours post infection. Mice received treatment every day for 7 days. Subsequent infection and drug cures (IDCs) were administered 2 weeks from the day of last treatment (or 3 weeks between infections). Mice were challenged 4 weeks from the day of last treatment of the last round of IDC (or 5 weeks from last infection).
Blood smears were performed on D1, 2, 4 and 6 post infection during IDC 1, 2 and 3.

C[C@H]1c2cccc(O)c2C(=O)C2=C(O)[C@]3(O)C(=O)C(C(N)=O)=C(O)[C@@H](N(C)C)[C@@H]3[C@@H](O)[C@@H]21 [doxycycline]
illness of the volunteers [1]: did not become ill | time the infection takes to clear ([2]; 10^5-10^7 pRBC i.v., doxycycline 50 mg/kg i.p. daily for 7 days): approximately 4 days | condition of the mice during the infection ([2]; pRBC i.v. with doxycycline 50 mg/kg i.p. daily for 7 days): remain well
